The subject of one series is Phosphorylation of STAT5. The series is described as follows: STAT5 phosphorylation immunoblot in ruxolitinib-resistant cells. Conditions: ruxolitinib 0.5-2 μM. In kind it is cell-based. On the technique in general: Immunoblotting shows a protein as a band on a membrane.
The subject of another series is parental BA/F3 cells. Nature of the series: Cell proliferation. It is filed as cell-based, murine.
Series [1] relates to BA/F3-EpoR-JAK2 V617F cells. The series is described as follows: Cell proliferation by viable cell counts. The conditions noted are these: Compound 1, 5 days. The arrangement: dose or concentration left out as unconfirmed. In kind it is cell-based, murine.
A further series deals with rats. The series is described as follows: GLP toxicology studies in rats. It is filed as in vivo, rat. As for the experimental part: (§1) Dose calculations were determined from GLP toxicology studies in rats and non-GLP toxicology studies in dogs.
The test system of series [2] is HSC maintenance, TNFα and WNT signaling pathways. Nature of the series: RNA-sequencing of LSK cells from treated homozygous JAK2 V617F mice. In kind it is in vivo, mouse. Conditions: purified LSK cells, compared with vehicle.
In the next series the target is Flt3 (Homo sapiens, UniProt P36888). Nature of the series: Flt3 inhibition (IC50). In kind it is biochemical.
The test system of the next series is PC3 cells. Nature of the series: Colony formation assay of prostate adenocarcinoma. It is filed as cell-based. The conditions noted are these: Homo sapiens, PC-3; RPMI, pyruvate, 0.5% FBS; read-out: EC50 against PC3 cells (colony formation). As for the experimental part:
PC3 cells were seeded in Roswell Park Memorial Institute (RPMI) media with pyruvate and 10% fetal bovine serum (FBS).

Series [3] relates to PC3 prostate adenocarcinoma xenograft. Nature of the series: PC3 prostate adenocarcinoma mouse xenograft model. It is filed as in vivo.
The next series deals with PIM 1 (Homo sapiens, UniProt P11309). The series is described as follows: PIM kinase biochemical profile (Ki).
The next series deals with PIM 2 (Homo sapiens, UniProt Q9P1W9). The series is described as follows: PIM kinase biochemical profile (Ki).
Series [4] relates to homozygous JAK2 V617F knock-in mouse model of MF. The series is described as follows: Homozygous JAK2 V617F knock-in mouse model of MF. In kind it is in vivo. As for the experimental part: Bone marrow cells from homozygous JAK2 V617F knock-in mice were transplanted into lethally irradiated C57BL/6 recipients to obtain a cohort of MF mice with similar age. […] All mice were treated for 6 weeks.

In another series the test system is dogs. Nature of the series: Non-GLP toxicology studies in dogs (7-day repeat). It is filed as in vivo. On the procedure:
as §1
In dogs, the highest non-severely toxic dose was not observed in 7-day repeat studies at doses as high as 200 mg/kg, which equates to 7400 mg per person or greater, calculated as: […]

In series [5] the test system is HEL, BA/F3-EpoR-JAK2 V617F, UKE-1 and SET-2 cells expressing JAK2 V617F. Nature of the series: Apoptosis by Annexin V staining and flow cytometry. It is filed as cell-based. The conditions noted are these: 48 hours after treatment, JAK2 V617F-expressing cell lines. For orientation: In flow cytometry, cells or beads pass a laser one at a time.
The subject of series [6] is ruxolitinib-resistant BA/F3-EpoR-JAK2 V617F cells. The series is described as follows: Proliferation of ruxolitinib-resistant cells by viable cell counts. In kind it is cell-based. The conditions noted are these: ruxolitinib 0.5-2 μM or Compound 1 0.25-1 μM, 5 days.
In series [7] the test system is JAK2 V617F-positive UKE-1 cells. Nature of the series: Cell proliferation by viable cell counts. It is filed as cell-based, human. The conditions noted are these: 5 days.
The test system of another series is SET-2 cells. The series is described as follows: Cell proliferation by viable cell counts. In kind it is cell-based. The conditions noted are these: 5 days.
The next series relates to phospho-BAD. Nature of the series: Reduction of phospho-BAD (PIM-1 biomarker). It is filed as cell-based. The conditions noted are these: compared to Compound A. The source says: The results of this assay are illustrated as a plot of the % of the control against the compound concentration (FIG. 15).
Another series is described as follows: Metabolic stability. In kind it is in vitro ADME. Conditions: compared to Compound A.
Series [8] has as its system MPL mutant (MPL W515L) mice. Nature of the series: MPL W515L transplantation mouse model. In kind it is in vivo. The source says: (§2) These animals rapidly develop marked thrombocytosis and leukocytosis. At the time of sacrifice, MPL W515L expressing mice show splenomegaly and bone marrow fibrosis.
A further series deals with PIM 3 (Homo sapiens, UniProt Q86V86). Nature of the series: PIM kinase biochemical profile (Ki).
The test system of series [9] is JAK2 V617F-positive HEL cells. Nature of the series: Cell proliferation by viable cell counts. It is filed as cell-based, human. Conditions: 5 days.
In series [10] the test system is MPN patient CD34+ hematopoietic progenitor cells. The series is described as follows: Hematopoietic progenitor colony assay in methylcellulose. In kind it is cell-based, human. The conditions noted are these: 1-2 μM, colonies counted after 14 days. The source says:
(§3) Hematopoietic progenitor colonies were counted after 14 days.

Series [11] deals with healthy control CD34+ cells. The description is as above. In kind it is cell-based, human. Conditions: 1-2 μM, 14 days.
From the text: as §3

The subject of series [12] is BA/F3 cells expressing wild type JAK2. Nature of the series: Apoptosis by Annexin V staining and flow cytometry. In kind it is cell-based. The conditions noted are these: 48 hours after treatment.
Series [13] shares this test system. Nature of the series: Cell proliferation by viable cell counts. Conditions: wild-type JAK2, higher concentrations, 5 days. It is filed as cell-based, murine.
Another series deals with BA/F3 MPL W515L cells. Nature of the series: Cell proliferation. Conditions: 0.25-1 μM. In kind it is cell-based, murine.
From the text: as §2

[14] abbreviates: Compound 1 150 mg/kg, ruxolitinib 60 mg/kg, oral gavage once daily, 6 weeks.

Each structure is given as a SMILES string. Some results are limits rather than exact numbers.

Sequence of Flt3 (P36888 27-993, species assumed): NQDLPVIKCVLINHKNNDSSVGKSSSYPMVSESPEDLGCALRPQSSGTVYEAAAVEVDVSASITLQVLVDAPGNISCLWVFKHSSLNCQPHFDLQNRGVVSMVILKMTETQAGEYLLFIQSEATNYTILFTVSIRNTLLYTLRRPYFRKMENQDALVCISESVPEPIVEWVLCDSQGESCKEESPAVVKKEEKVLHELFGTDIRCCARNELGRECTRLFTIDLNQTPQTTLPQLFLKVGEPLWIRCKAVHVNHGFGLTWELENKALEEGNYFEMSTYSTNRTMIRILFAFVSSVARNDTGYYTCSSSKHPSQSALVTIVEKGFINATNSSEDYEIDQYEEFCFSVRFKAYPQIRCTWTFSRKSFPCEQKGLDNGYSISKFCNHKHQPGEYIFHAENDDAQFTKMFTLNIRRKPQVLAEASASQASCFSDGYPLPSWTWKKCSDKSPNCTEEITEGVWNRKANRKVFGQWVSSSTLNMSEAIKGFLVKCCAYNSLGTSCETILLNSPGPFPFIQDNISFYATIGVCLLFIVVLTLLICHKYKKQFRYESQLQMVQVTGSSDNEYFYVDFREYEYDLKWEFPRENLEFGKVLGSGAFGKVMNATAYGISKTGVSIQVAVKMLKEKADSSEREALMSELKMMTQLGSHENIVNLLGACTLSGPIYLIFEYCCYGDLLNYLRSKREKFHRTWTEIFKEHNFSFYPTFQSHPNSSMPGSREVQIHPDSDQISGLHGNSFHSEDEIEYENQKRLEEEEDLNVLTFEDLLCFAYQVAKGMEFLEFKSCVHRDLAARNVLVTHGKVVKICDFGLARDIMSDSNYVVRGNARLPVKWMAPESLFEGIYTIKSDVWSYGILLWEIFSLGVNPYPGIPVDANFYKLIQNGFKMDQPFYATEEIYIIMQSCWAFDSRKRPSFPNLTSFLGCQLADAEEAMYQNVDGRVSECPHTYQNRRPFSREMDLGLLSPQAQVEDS
Sequence of PIM 1 (P11309 whole entry, species assumed): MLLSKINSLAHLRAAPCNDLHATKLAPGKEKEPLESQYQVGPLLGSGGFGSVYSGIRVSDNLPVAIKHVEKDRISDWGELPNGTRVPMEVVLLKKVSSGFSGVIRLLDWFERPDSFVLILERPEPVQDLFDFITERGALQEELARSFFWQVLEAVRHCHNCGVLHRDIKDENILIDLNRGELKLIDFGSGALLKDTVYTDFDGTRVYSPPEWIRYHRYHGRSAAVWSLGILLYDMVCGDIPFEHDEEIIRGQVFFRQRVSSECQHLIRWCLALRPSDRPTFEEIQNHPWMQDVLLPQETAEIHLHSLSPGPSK
Sequence of PIM 2 (Q9P1W9 whole entry, species assumed): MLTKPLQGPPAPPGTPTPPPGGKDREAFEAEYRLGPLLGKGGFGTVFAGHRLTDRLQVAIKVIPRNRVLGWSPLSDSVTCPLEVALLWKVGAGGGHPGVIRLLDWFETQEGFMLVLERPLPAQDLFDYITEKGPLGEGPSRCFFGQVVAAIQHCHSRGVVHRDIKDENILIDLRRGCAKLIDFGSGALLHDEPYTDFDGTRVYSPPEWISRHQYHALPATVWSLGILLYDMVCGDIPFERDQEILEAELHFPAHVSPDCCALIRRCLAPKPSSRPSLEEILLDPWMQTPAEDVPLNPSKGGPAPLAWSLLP

As for `N#CC[C@H](C1CCCC1)n1cc(-c2ncnc3[nH]ccc23)cn1` [ruxolitinib], the “inhibition of STAT5 phosphorylation” value with Phosphorylation of STAT5 is on record as “not inhibited”.
For the compound `CC(C)(O)[C@H]1CC[C@H](Nc2ccc3ncc(-c4cccc(C(F)(F)F)c4)n3n2)CC1` [Compound 1, 2-((1R,4R)-4-((3-(3-(trifluoromethyl)phenyl)imidazo[1,2-b]pyridazin-6-yl)amino)cyclohexyl)propan-2-ol], in the series on parental BA/F3 cells, the concentration reducing proliferation entry was “greater than 1 M”. For the same compound, the reduction of proliferation in series [1] is on record as roughly 90%; in the series with BA/F3 MPL W515L cells it was “significantly reduced”. Moreover, in the series with rats (average per person), the “human equivalent of rat severely toxic dose in 10 percent of animals” value was found to be 5286 mg. Besides, in the series on rats (rat, GLP toxicology), the “severely toxic dose in 10 percent of animals” value amounted to 500 mg/kg. Also, the “expression of genes relating to HSC maintenance, TNFα and WNT signaling pathways” value in series [2] is listed as “significantly downregulated”. The compound further yielded an IC50 at Flt3 of 279 nM. For the same compound, the EC50 with PC3 cells turned out to be 143 nM. Also, the “percentage of tumor growth inhibition (% TGI)” value in series [3] (125 mg/kg) came to 59%; in [3] (200 mg/kg), 40%. Further, the values for the inhibition constant Ki at PIM 1, on PIM 2 and at PIM 3 were 5 nM, 239 nM and 42 nM, respectively. For the same compound, the “fibrosis in bone marrow and spleen (reticulin staining)” value in [4] (Compound 1 150 mg/kg, ruxolitinib 60 mg/kg, 6 weeks) is reported as “marked reduction of fibrosis”. Besides, in [4] (setting [14]), the neutrophil counts entry is reported as “caused reduction”. For the same compound, in series [4] (setting [14]), the “peripheral blood white blood cell (WBC) counts” value is “caused reduction”. Besides, the spleen size result in series [4] (homozygous JAK2 V617F mice, versus vehicle) was “significantly reduces”. The “human equivalent of efficacious dose level in mouse myelofibrosis model (150 mg/kg)” value in series [4] (per person) came out at 925 mg. In the series on dogs (dog, 7-day repeat studies, not observed at doses as high as), the “highest non-severely toxic dose” value is listed as no less than 200 mg/kg. Besides, the “human equivalent of dog highest non-severely toxic dose” value in the series with dogs (per person) is on record as no less than 7400 mg. Also, the “apoptosis (Annexin V)” value was “significant apoptosis” in [5] and “not in wild type JAK2-expressing BA/F3 cells” in series [12]. Further, in series [6], the “inhibition of cell proliferation” value was “markedly inhibited”. Further, the inhibition of proliferation result in series [7] is on record as “markedly inhibited”; with SET-2 cells, “dose dependent inhibition”; in series [9], “markedly inhibited”; in series [13], “only modestly inhibited”. Besides, in the series on phospho-BAD, the “potency at reducing phospho-BAD” value is “more potent”. The metabolic stability result in the series “Metabolic stability” is recorded as “improved metabolic stability”. Besides, the splenomegaly entry in series [8] was “significant decrease”. The “inhibition of hematopoietic progenitor colonies” value in series [10] is given as “significantly inhibited”. Besides, the “effect on hematopoietic progenitor colonies” value in [11] is given as “minimal effect”.
`CN1CCC(CNc2ccc3ncc(-c4cccc(OC(F)(F)F)c4)n3n2)CC1` [Compound A, reference compound] yielded an IC50 against Flt3 of 3 nM. The compound further gave a Ki at PIM 3 of 20 nM.

As a reminder, the IC50 is the concentration that inhibits the measured activity by half. What is called EC50 is the midpoint of the concentration-response curve. As a reminder, the Ki is the equilibrium dissociation constant of an inhibitor or competing ligand from its target.

The values above are taken from patent publication US20250082634A1, “PIM KINASE INHIBITORS FOR TREATMENT OF MYELOPROLIFERATIVE NEOPLASMS AND FIBROSIS ASSOCIATED WITH CANCER” (Sumitomo Pharma America, Inc., priority 2018, published 2025).
